Assay results as given in BindingDB's records for doi:10.1016/j.bmcl.2010.09.009 (Merck Research Laboratories, 2010).

Assay: Inhibition of PAR1-mediated aggregation of TRAP-stimulated human platelet

IC50: 180 nM
Structure (SMILES): CCOC(=O)N[C@@H]1CC[C@@H]2[C@@H](C1)C[C@H]1C(=O)O[C@H](C)[C@H]1[C@H]2C=Cc1ccc(-c2ccccn2)cn1 [ethyl(1R,3aR,4aR,6R,8aR,9S,9aS)-9-((E)-2-(2,3'-bipyridin-6'-yl)vinyl)-1-methyl-3-oxododecahydronaphtho[2,3-c]furan-6-ylcarbamate]
